Reference: publication PMC9286713 (CPT: Pharmacometrics & Systems Pharmacology, 2022)
≈ marks a conversion by molar mass, not a printed value. Where two headings read alike, the source gives them in different places. Values belong to the compound of their own block, whether it stands above or below them.

How the values were obtained:
[1] = human ADME study (unpublished data); cited from earlier work
[2] = Solubility‐pH profile in buffers at 37°C; format: physicochemical
logP determination = format: physicochemical
P‐glycoprotein (P‐gp) = P‐glycoprotein (P‐gp) (Homo sapiens, UniProt P08183); assay: In vitro transport study, pemigatinib as substrate: P‐gp mediated efflux; format: in vitro ADME; settings: data on file
pKa determination = format: physicochemical
[3] = cited from earlier work
[4] = cited from earlier work; for Observed AUC0–∞: geometric mean
Blood/plasma ratio = format: in vitro ADME; settings: blood and plasma
P‐gp = P‐gp (Homo sapiens, UniProt P08183); assay: P‐gp inhibition
[5] = Human mass balance / ADME study in healthy participants; format: in vivo
MATE1 = molecular target: T1, MATE1 (Homo sapiens, UniProt Q96FL8); assay: MATE1 inhibition; format: in vitro ADME
T1 sequence (Q96FL8 1-570): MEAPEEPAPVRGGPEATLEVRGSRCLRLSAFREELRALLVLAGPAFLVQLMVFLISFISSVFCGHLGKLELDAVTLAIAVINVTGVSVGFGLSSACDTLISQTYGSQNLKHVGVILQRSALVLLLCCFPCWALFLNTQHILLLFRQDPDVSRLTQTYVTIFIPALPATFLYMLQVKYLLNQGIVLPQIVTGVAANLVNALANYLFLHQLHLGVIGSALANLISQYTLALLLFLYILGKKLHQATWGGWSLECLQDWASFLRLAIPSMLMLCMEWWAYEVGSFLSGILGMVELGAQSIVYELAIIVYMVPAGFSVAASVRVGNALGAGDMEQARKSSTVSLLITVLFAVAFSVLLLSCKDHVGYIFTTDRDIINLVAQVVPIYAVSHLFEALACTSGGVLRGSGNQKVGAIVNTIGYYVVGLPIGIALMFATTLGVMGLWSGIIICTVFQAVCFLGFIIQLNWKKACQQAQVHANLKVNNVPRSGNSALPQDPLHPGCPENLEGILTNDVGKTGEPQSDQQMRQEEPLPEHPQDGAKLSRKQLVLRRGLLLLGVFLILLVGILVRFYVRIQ

[6] = fed state; cited from earlier work
[7] = patients with cancer, cited from earlier work; for Observed AUCss,0–24: geometric mean
OCT2 = molecular target: T2, OCT2 (Homo sapiens, UniProt O15244); assay: OCT2 inhibition
T2 sequence (O15244 1-555): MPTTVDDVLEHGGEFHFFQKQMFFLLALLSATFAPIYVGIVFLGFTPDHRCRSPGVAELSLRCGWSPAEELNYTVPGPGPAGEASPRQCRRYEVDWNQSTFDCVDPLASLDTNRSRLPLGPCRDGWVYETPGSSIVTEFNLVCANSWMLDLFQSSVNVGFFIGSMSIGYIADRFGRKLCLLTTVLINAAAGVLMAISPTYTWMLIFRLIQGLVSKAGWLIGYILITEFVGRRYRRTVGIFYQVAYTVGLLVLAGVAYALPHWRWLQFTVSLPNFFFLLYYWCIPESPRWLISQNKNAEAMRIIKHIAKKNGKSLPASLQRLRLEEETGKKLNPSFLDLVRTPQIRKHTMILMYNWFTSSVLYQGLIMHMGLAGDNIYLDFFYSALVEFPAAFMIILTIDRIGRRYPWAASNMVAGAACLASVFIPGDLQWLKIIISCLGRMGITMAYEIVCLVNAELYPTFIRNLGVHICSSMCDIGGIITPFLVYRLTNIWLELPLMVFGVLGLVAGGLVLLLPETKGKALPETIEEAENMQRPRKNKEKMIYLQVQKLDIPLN

[8] = healthy participants, unpublished data

Chain of P‐gp (P08183 whole entry): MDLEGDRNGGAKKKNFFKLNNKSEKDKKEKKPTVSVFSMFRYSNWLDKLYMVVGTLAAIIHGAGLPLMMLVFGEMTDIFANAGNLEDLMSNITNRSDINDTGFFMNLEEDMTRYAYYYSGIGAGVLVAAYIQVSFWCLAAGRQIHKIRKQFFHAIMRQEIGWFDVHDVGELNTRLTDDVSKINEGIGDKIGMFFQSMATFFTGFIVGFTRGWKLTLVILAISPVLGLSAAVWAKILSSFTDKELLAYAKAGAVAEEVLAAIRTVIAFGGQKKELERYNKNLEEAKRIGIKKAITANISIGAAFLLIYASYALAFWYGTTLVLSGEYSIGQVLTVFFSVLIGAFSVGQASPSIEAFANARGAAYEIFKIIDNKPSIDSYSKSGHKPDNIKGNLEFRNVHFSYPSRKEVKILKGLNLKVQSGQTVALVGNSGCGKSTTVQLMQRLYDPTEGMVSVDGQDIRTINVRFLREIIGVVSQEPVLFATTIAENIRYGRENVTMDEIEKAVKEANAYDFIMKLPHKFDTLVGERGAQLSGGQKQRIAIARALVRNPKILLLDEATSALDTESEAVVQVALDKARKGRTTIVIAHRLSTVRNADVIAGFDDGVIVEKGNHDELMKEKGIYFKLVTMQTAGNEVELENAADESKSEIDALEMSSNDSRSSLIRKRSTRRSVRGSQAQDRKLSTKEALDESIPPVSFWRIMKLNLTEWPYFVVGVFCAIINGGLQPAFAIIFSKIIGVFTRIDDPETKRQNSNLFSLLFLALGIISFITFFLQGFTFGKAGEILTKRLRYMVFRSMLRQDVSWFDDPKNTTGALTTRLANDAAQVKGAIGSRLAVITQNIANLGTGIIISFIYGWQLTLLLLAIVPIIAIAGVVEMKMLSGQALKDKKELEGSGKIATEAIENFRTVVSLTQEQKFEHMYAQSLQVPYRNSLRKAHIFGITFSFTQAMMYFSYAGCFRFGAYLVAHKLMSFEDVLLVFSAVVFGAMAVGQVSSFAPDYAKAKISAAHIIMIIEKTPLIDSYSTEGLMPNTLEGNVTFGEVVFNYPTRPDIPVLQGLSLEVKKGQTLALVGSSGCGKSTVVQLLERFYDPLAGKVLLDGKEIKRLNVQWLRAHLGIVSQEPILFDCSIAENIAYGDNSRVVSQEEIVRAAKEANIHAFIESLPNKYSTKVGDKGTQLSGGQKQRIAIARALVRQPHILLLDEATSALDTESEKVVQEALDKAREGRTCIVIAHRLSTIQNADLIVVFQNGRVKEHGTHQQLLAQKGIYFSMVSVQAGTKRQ
Chain of P‐glycoprotein (P‐gp) (P08183 whole entry): as above

Compound: CCN1C(=O)N(c2c(F)c(O)cc(OC)c2F)Cc2cnc3[nH]c(CN4CCOCC4)cc3c21 [M2, O‐desmethyl‐pemigatinib]
Metabolite burden in urine and feces derived from M2 and its secondary metabolites [1]: 76.9%

solubility ([2]; buffer, 37 °C, pH 1.2, aqueous buffer, Solubility, pH 1.2 buffer): ~710 µg/mL (≈ 1460 µM)
solubility ([2]; buffer, 37 °C, pH 2, aqueous buffer, Solubility, pH 2.0 buffer): 650 µg/mL (≈ 1330 µM)
solubility ([2]; buffer, 37 °C, pH 6.5, aqueous buffer, Solubility, pH 6.5 buffer): < 1 µg/mL
solubility ([2]; buffer, 37 °C, pH 7.4, aqueous buffer, Solubility, pH 7.4 buffer): < 1 µg/mL
solubility ([2]; buffer, pH 3.3, Solubility, pH 3.3): 200 µg/mL (≈ 410 µM)
solubility ([2]; buffer, pH 4.3, Solubility, pH 4.3): 30 µg/mL (≈ 61.5 µM)
solubility ([2]; buffer, pH 5.3, Solubility, pH 5.3): 1 µg/mL (≈ 2.05 µM)
solubility ([2]; pH 1.2 buffer, 37°C): 710 µg/mL (≈ 1460 µM)
logP (logP determination): 2.2
Concentration at which P‐gp mediated efflux was saturated (P‐glycoprotein (P‐gp)): 1000 nM
Compound type (pKa determination): Diprotic base
pKa (pKa determination; first printed pKa of the diprotic base): 5.7
pKa (pKa determination; second printed pKa of the diprotic base): 3.1
blood plasma ratio (Blood/plasma ratio): 0.96
IC50 (P‐gp): 4.8 µM
Total radioactivity excreted in feces [5, 8]: 82.4%
Total radioactivity excreted in urine [5, 8]: 12.6%
Radioactivity blood/plasma value ([5]; human ADME study): 0.80
CL renal ([5]; human, urine, oral): ~3.33 mL/min
Administered radioactive dose recovered as unchanged pemigatinib in feces ([5]; in vivo): 1.4%
Dose excreted in urine as unchanged pemigatinib (renal excretion) ([5]; in vivo): ~ 1%
IC50 (MATE1): 1.1 µM
IC50 (OCT2): 0.075 µM
Compound: CCN1C(=O)N(c2c(F)c(OC)cc(OC)c2F)Cc2cnc3[nH]c(CN4CCOCC4)cc3c21 [pemigatinib, Pemigatinib]
Decrease of geometric mean AUC of pemigatinib ([3]; coadministration with esomeprazole): 8%
Decrease of geometric mean Cmax of pemigatinib ([3]; coadministration with histamine‐2 antagonist ranitidine): 2%
Decrease of geometric mean Cmax of pemigatinib ([3]; coadministration with proton pump inhibitor esomeprazole): 35%
Increase of geometric mean AUC of pemigatinib ([3]; coadministration with ranitidine): 3%
Increase in pemigatinib AUC ([4]; itraconazole coadministration): ~90%
Increase in pemigatinib Cmax ([4]; itraconazole coadministration): ~20%
CLpo (oral clearance) ([4]; pemigatinib alone cohort of itraconazole DDI study, healthy volunteers): 14.5 L/h
Decrease in half‐life of pemigatinib ([4]; rifampin coadministration): 63%
Decrease in pemigatinib AUC ([4]; rifampin coadministration): 85%
Observed AUC0–∞ ([4]; single oral dose 4.5 mg, healthy volunteers): 0.672 µM·h
Observed AUC0–∞ ([4]; single oral dose 13.5 mg, healthy volunteers): 1.96 µM·h
Total radioactivity accounted for by known metabolites [1]: 72%
Decrease of geometric mean Cmax [6]: 18%
Increase of geometric mean AUC0–24 at SS [6]: 11%
Observed AUCss,0–24 ([7]; multiple oral doses 6 mg): 1.05 µM·h
Observed AUCss,0–24 ([7]; multiple oral doses 9 mg): 1.67 µM·h
Terminal half‐life ([7]; oral dosing): ~ 15 h
CLpo (oral clearance) ([7]; phase I study): 12.0 L/h
Apparent volume of distribution, geometric mean [7]: 173 to 244 L
SS oral clearance, geometric mean [7]: 9.88 to 11.7 L/h
